Test results published in patent US20200405697A1, “Antitumor Agent” (Taiho Pharmaceutical Co., Ltd, priority 2017, published 2020).

System: A549 (Human lung cancer cell line)
Assay: Effect of combination of sulfonamide compound and other antitumor agent (CellTiter-Glo, combination index): A549
[1] = Example Compound 1 281 nM + Fludarabine nucleoside 5920 nM, molar ratio 1:21.08
[2] = Example Compound 1 281 nM + Prexasertib 1.97 nM, molar ratio 1:0.007018
[3] = Example Compound 1 281 nM + SCH900776 908 nM, molar ratio 1:3.232
[4] = Example Compound 1 422 nM + AZD6738 1040 nM, molar ratio 1:2.455
[5] = Example Compound 1 422 nM + Cytarabine 108 nM, molar ratio 1:0.2566
[6] = Example Compound 1 422 nM + Fludarabine nucleoside 8900 nM, molar ratio 1:21.08
[7] = Example Compound 1 422 nM + Prexasertib 2.96 nM, molar ratio 1:0.007018
[8] = Example Compound 1 422 nM + SCH900776 1360 nM, molar ratio 1:3.232
[9] = Example Compound 1 633 nM + AZD6738 1550 nM, molar ratio 1:2.455
[10] = Example Compound 1 633 nM + Fludarabine nucleoside 13300 nM, molar ratio 1:21.08
[11] = Example Compound 1 633 nM + Guadecitabine 489 nM, molar ratio 1:0.7725
[12] = Example Compound 1 633 nM + Prexasertib 4.44 nM, molar ratio 1:0.007018
[13] = Example Compound 1 633 nM + SCH900776 2050 nM, molar ratio 1:3.232
[14] = Example Compound 1 949 nM + AZD6738 2330 nM, molar ratio 1:2.455
[15] = Example Compound 1 949 nM + Azacytidine 2740 nM, molar ratio 1:2.885
[16] = Example Compound 1 949 nM + Cytarabine 244 nM, molar ratio 1:0.2566
[17] = Example Compound 1 949 nM + Decitabine 2000 nM, molar ratio 1:2.108
[18] = Example Compound 1 949 nM + Fludarabine nucleoside 20000 nM, molar ratio 1:21.08
[19] = Example Compound 1 949 nM + Guadecitabine 733 nM, molar ratio 1:0.7725
[20] = Example Compound 1 949 nM + Prexasertib 6.66 nM, molar ratio 1:0.007018
[21] = Example Compound 1 949 nM + SCH900776 3070 nM, molar ratio 1:3.232
[22] = Example Compound 1 949 nM + Sunitinib 1870 nM, molar ratio 1:1.969
[23] = Example Compound 1 949 nM + Trifluridine 430 nM, molar ratio 1:0.4535
[24] = Example Compound 1 1420 nM + 5-Fluorouracil 2700 nM, molar ratio 1:1.900
[25] = Example Compound 1 1420 nM + AZD6738 3490 nM, molar ratio 1:2.455
[26] = Example Compound 1 1420 nM + Azacytidine 4100 nM, molar ratio 1:2.885
[27] = Example Compound 1 1420 nM + Cytarabine 364 nM, molar ratio 1:0.2566
[28] = Example Compound 1 1420 nM + Decitabine 2990 nM, molar ratio 1:2.108
[29] = Example Compound 1 1420 nM + Etoposide 3780 nM, molar ratio 1:2.663
[30] = Example Compound 1 1420 nM + Gemcitabine 8.37 nM, molar ratio 1:0.005895
[31] = Example Compound 1 1420 nM + Guadecitabine 1100 nM, molar ratio 1:0.7725
[32] = Example Compound 1 1420 nM + Lapatinib 5990 nM, molar ratio 1:4.216
[33] = Example Compound 1 1420 nM + Luminespib 13.5 nM, molar ratio 1:0.009473
[34] = Example Compound 1 1420 nM + Midostaurin 250 nM, molar ratio 1:0.1761
[35] = Example Compound 1 1420 nM + Olaparib 14800 nM, molar ratio 1:10.40
[36] = Example Compound 1 1420 nM + Oxaliplatin 1060 nM, molar ratio 1:0.7448
[37] = Example Compound 1 1420 nM + Sunitinib 2800 nM, molar ratio 1:1.969
[38] = Example Compound 1 1420 nM + Talazoparib 7980 nM, molar ratio 1:5.617
[39] = Example Compound 1 1420 nM + Trifluridine 644 nM, molar ratio 1:0.4535
[40] = Example Compound 1 2140 nM + Cabozantinib […], molar ratio 1:4.216
[41] = Example Compound 1 2140 nM + Carboplatin 79500 nM, molar ratio 1:37.17
[42] = Example Compound 1 2140 nM + Cisplatin 9620 nM, molar ratio 1:4.494
[43] = Example Compound 1 2140 nM + Trifluridine 970 nM, molar ratio 1:0.4535
[44] = Example Compound 1 3200 nM + Carboplatin 119000 nM, molar ratio 1:37.17
[45] = Example Compound 1 3200 nM + Cisplatin 14400 nM, molar ratio 1:4.494
[46] = Example Compound 1 4810 nM + Carboplatin 179000 nM, molar ratio 1:37.17

Experimental: Each cell line was seeded at 90 L/well to a 96-well culture plate (Thermo Fisher Scientific, Inc.) according to the above tables. The cell-seeded plate was cultured in an incubator set to 37° C. and 500 CO2. On the day following seeding, varying concentrations of the sulfonamide compound and the other antitumor agent were added in combination to the cells. […] The serial dilutions of each compound, or DW was added at 5μL/well to the plate such that each compound and DW, or the sulfonamide compound and the other antitumor agent were combined. […] The plate after the addition was cultured at 37° C. for 3 days under 5% CO2 conditions.
Three days later, CellTiter-Glo(R) 2.0 Reagent (Promega Corporation) was added at 100 μL/well, and the amount of luminescence was measured using a plate reader EnSpire(R) Multimode Plate Reader (PerkinElmer Co., Ltd.).
An average value from 3 wells was calculated as to each drug condition from the obtained data, and cell survival rate normalized against control wells supplemented with the vehicle (DW) was calculated. A Fa (fractional inhibition) value was calculated by subtracting the cell survival rate from 1.

Cc1ccc(F)c([C@@H](C)[C@H](NS(=O)(=O)c2ccc(Br)cc2C(N)=O)c2n[nH]c(=O)o2)c1C [Example 1, 5-bromo-2-(N-((1 S,2R)-2-(6-fluoro-2,3-dimethylphenyl)-1-(5-oxo-4,5-dihydro-1,3,4-oxadiazol-2-yl)propyl)sulfamoyl)benzamide]
CI value [1]: 0.550
Fa value [1]: 0.2653
CI value [2]: 0.349
Fa value [2]: 0.3570
CI value [3]: 0.196
Fa value [3]: 0.6117
CI value [4]: 0.449
Fa value [4]: 0.5145
CI value [5]: 0.770
Fa value [5]: 0.4482
CI value [6]: 0.388
Fa value [6]: 0.6824
CI value [7]: 0.226
Fa value [7]: 0.7264
CI value [8]: 0.195
Fa value [8]: 0.7479
CI value [9]: 0.350
Fa value [9]: 0.7602
CI value [10]: 0.367
Fa value [10]: 0.8650
CI value [11]: 0.471
Fa value [11]: 0.4374
CI value [12]: 0.193
Fa value [12]: 0.8863
CI value [13]: 0.190
Fa value [13]: 0.8581
CI value [14]: 0.315
Fa value [14]: 0.8849
CI value [15]: 0.895
Fa value [15]: 0.5060
CI value [16]: 0.461
Fa value [16]: 0.7886
CI value [17]: 0.501
Fa value [17]: 0.5507
CI value [18]: 0.537
Fa value [18]: 0.8719
CI value [19]: 0.502
Fa value [19]: 0.5583
CI value [20]: 0.288
Fa value [20]: 0.8866
CI value [21]: 0.257
Fa value [21]: 0.8783
CI value [22]: 0.721
Fa value [22]: 0.6537
CI value [23]: 0.890
Fa value [23]: 0.6005
CI value [24]: 0.881
Fa value [24]: 0.6426
CI value [25]: 0.482
Fa value [25]: 0.8809
CI value [26]: 0.676
Fa value [26]: 0.7364
CI value [27]: 0.491
Fa value [27]: 0.8557
CI value [28]: 0.583
Fa value [28]: 0.6575
CI value [29]: 0.772
Fa value [29]: 0.6999
CI value [30]: 0.858
Fa value [30]: 0.8410
CI value [31]: 0.563
Fa value [31]: 0.6756
CI value [32]: 0.480
Fa value [32]: 0.8412
CI value [33]: 0.894
Fa value [33]: 0.7741
CI value [34]: 0.871
Fa value [34]: 0.7361
CI value [35]: 0.761
Fa value [35]: 0.6398
CI value [36]: 0.831
Fa value [36]: 0.7172
CI value [37]: 0.688
Fa value [37]: 0.8162
CI value [38]: 0.661
Fa value [38]: 0.6630
CI value [39]: 0.717
Fa value [39]: 0.8230
CI value [40]: 0.790
Fa value [40]: 0.9173
CI value [41]: 0.632
Fa value [41]: 0.9198
CI value [42]: 0.848
Fa value [42]: 0.9125
CI value [43]: 0.761
Fa value [43]: 0.8988
CI value [44]: 0.502
Fa value [44]: 0.9734
CI value [45]: 0.694
Fa value [45]: 0.9675
CI value [46]: 0.569
Fa value [46]: 0.9841
